The test system of one test is γ-GT. Put plainly: Histoenzymography of γ-GT activity in ex-vivo mouse kidneys. The format is biochemical. To be noted: ex-vivo kidneys of non-diseased BALB/c mice. The procedure:
FIG. 2B. Selective inhibition of the enzymatic activities of APA and yGT by the γ-secretase analogues determined by histoenzymography in the kidneys of non diseased BALB/c mice.
Evaluation by histoenzymography of APA and γ-GT enzymatic activities on frozen tissue was performed as described in Juillerat-Jeanneret, L. et al., Lab. Invest. 2000, 80, 973-980. Briefly, OCT-embedded frozen kidneys were cut in 7 μm sections in a cryostat, fixed for 5 min in cold (−20° C.) acetone, air dried at RT and rehydrated for 5 min in 0.9% NaCl. Naphthylamide substrates were obtained from commercial sources (α-Glu-4-methoxy-β-naphtylamide (APA) from Bachem; and γ-Glu-4-methoxy-β-naphtylamide (γ-GT) from Serva). Substrates (1 mg) were dissolved in 1 ml DMF and 2 mg Fast Blue B (Sigma-Aldrich) was dissolved in 2 ml 0.2M cacodylate buffer pH 7.4 containing 700 mg/l CaCl2; then both solutions were slowly mixed immediately before use and the pH adjusted to 6.5-7.0. […] The slides were washed in distilled water, counter-stained with hematoxylin (Mayer) for 1 min, rinsed under tap water, then with Scott solution for 1 min, rinsed under tap water, mounted in Aquamount (Immu-mount, Thermo Shandon Pittsburgh, Pa., USA) and analyzed with a Nikon Eclipse E800 microscope and digital DXM1200 camera using ACT-1 software. […]

The test system of test [1] is Notch1 and cleaved Notch1. In words: Immunohistochemistry of Notch1 and cleaved Notch1 in kidneys of mice exposed to aristolochic acid. As to conditions: for Notch1 and cleaved Notch1 in kidneys (immunohistochemistry): AA-exposed mice, 11a 10 mg/kg b.i.d. or 13a 30 mg/kg b.i.d. i.p., day 7, versus AA-treated mice without prodrug; for modification of Notch or cleaved Notch levels in the kidneys: healthy wild-type mice, compound injected alone (results not shown). It counts as in vivo, mouse. As to the method: FIG. 3. Expression of Notch1 and active cleaved Notch1 determined by immuno-histochemistry in kidneys of mice exposed to aristolochic acid (AA) and treated either with the amine-SecrI (11a) or with Ac-γ-Glu-SecrI (13a).
Sections (7 μm) of snap-frozen kidneys were exposed to an anti-γ-secretase-cleaved Notch (cNotch) antibody, followed by the […] staining. Immunostaining is visualized as dark precipitate.
All experiments with animals were conducted in accordance with federal and local regulation at the respective study location. Kidney injury was induced by intraperitoneal (i.p). injection of aristolochic acid (AA, Sigma-Aldrich, 1×5 mg/kg) in 10 weeks old BALB/c male mice. The γ-secretase inhibitors prodrugs were diluted in NaCl 0.9% and administered i.p., starting one day before the injection of AA (day −1) and then twice daily until day 6 evening (n=5 mice/experimental group). At day 7 morning (12 h after the last prodrug injection), blood was collected and the mice were sacrificed to remove the liver and both kidneys. The kidneys were cut in four fragments. One fragment was immediately frozen in liquid nitrogen, one fragment was included in OCT (Tissue-Tek, VWR International, Switzerland) and frozen, one fragment was frozen at −80° C. and one fragment was fixed in 4% paraformaldehyde and included in paraffin.
OCT-embedded frozen kidneys were cut at 7 μm. The sections were air dried, fixed for 10 min in cold (−20° C.). methanol, rinsed in PBS 0.1% Triton x-100 (PBS/Triton), and blocked for 30 min with PBS/Triton containing 5% bovine serum albumin (BSA). The rabbit anti-Notch1 antibody (D1E11, diluted 1/50) and the rabbit anti-cleaved Notch1 antibody (Val1744, diluted 1/50) were purchased from Cell Signaling, the biotinylated anti-rabbit antibody from Vector Laboratories (diluted 1/500) and streptavidin/HRP (diluted 1/500) from Dako. The primary antibodies were diluted in PBS containing 5% BSA and were incubated with the sections for 1 h at RT. Endogenous peroxidase and biotin were blocked using 3% H2O2 and Avidin/Biotin blocking kit (Vector Laboratories), respectively. The slides were rinsed with PBS/Triton three times and incubated for 1 h at RT with anti-rabbit biotin secondary antibody diluted in the same buffer as for primary antibodies. After three washes with PBS, slides were incubated with streptavidin/HRP antibody for 1 h at RT, then 3,3′diaminobenzidine (DAB, Dako) was added for 15 min. The slides were washed in distilled water, mounted in Aquamount and analyzed.
To investigate potential nephroprotective effects of Notch blockade using γ-secretase inhibition and to evaluate the effects of our enzyme-targeted prodrug strategy, we used the in vivo AA mouse model of acute renal tubular damage. […]

Turning to `CC(=O)N[C@@H](CCC(=O)NCCNC(=O)OCCN1C(=O)[C@@H](NC(=O)[C@@](C)(O)C(=O)NCC(F)(F)C(F)(F)F)[C@@H](C)Oc2ccc(F)cc21)C(=O)O` [Compound 13a, (S)-2-acetamido-5-(2-((2-((2R,3S)-7-fluoro-3-((S)-2-hydroxy-2-methyl-3-oxo-3-(2,2,3,3,3-pentafluoropropylamino)propanamido)-2-methyl-4-oxo-3,4-dihydrobenzo[b][1,4]oxazepin-5(2H)-yl)ethoxy)carbonylamino)ethylamino)-5-oxopentanoic acid], in the test with γ-GT, the “inhibition of γ-GT-like activity (hydrolysis of γ-Glu-naphthylamide)” value was “able to inhibit γ-GT-like activity”. Further, in test [1], the “Notch1 and cleaved Notch1 in kidneys (immunohistochemistry)” value was “reduced”; the “modification of Notch or cleaved Notch levels in the kidneys” value is recorded as “Neither (11a) nor (13a) injected alone induced any modification”.

On to `C[C@H]1Oc2ccc(F)cc2N(CCOC(=O)NCCN)C(=O)[C@H]1NC(=O)[C@@](C)(O)C(=O)NCC(F)(F)C(F)(F)F.Cl` [Compound 11a, 2-((2R,3S)-7-Fluoro-3-((S)-2-hydroxy-2-methyl-3-oxo-3-(2,2,3,3,3-pentafluoropropylamino)propanamido)-2-methyl-4-oxo-3,4-dihydrobenzo[b][1,4]oxazepin-5(2H)-yl)ethyl 2-aminoethylcarbamate hydrochloride], for which, in test [1], the “Notch1 and cleaved Notch1 in kidneys (immunohistochemistry)” value is “reduced”; the “modification of Notch or cleaved Notch levels in the kidneys” value is “Neither (11a) nor (13a) injected alone induced any modification”.

The values are drawn from patent publication US10632127B2, “Targeted notch pathway inhibitors” (Hoffmann-La Roche Inc., priority 2015, dated 2020).
